The subject of test [1] is Holstein Friesian cows challenged with S. aureus. In words: Clinical and productive variables in cows challenged with S. aureus (induced mastitis). It counts as in vivo.
The subject of a further test is S. aureus. In words: Bacteriological analysis (CFU) in milk of cows challenged with S. aureus. The format is in vivo, Staphylococcus aureus. The protocol: 1 mL of PBS was inoculated into the right quarters as a control. The NEG group (without therapy) was treated on days 4 and 10 with a 5 mL Ringer Lactate solution via the teat canal in the two infected quarters. The ATB group (antibiotic therapy) was treated with a commercial suspension of 50 mg of pirlimycin on experimental days 4 and 5 via the teat canal in the two infected quarters. The MSC group (MSC therapy) was administered with a 2.5×10^7 suspension of MSC in 3 ml of Lactated Ringer via the teat canal in the two infected quarters. From the day of the challenge and daily during 15 days, the cows were clinically evaluated and milk samples were collected daily to determine SCC and CFU (FIG. 2B). The clinical evaluation and the collection of milk samples were carried out as detailed below.
Milk samples prior to milking were collected aseptically from all cows following the protocols of the International Dairy Federation (1985) on three consecutive days prior to the experimental challenge (FIG. 2B). Briefly, before milking, the quarters and teats were cleaned using a brush or washed with water in case of excessive presence of mud or manure. Then the teats and especially the tips of the teats were disinfected using paper towels with 70% alcohol. Three or four milk streams were discarded to reduce the possibility of contamination with pathogens present in the teat canal. Each of the teats, starting with the most distant ones, were disinfected again using a 70% alcohol swab. Previously labelled sample bottles were positioned at a 45-degree angle below the nipple without touching it to prevent contamination. Nearby teats were first sampled and then distant teats, filling one third of the vial. The samples were refrigerated or frozen for analysis of SCC or CFU, respectively. Only cows with three negative consecutive cultures were used in the study. […]
From the day of the challenge and daily for 15 days, milk samples were collected for determination of CFU. The CFU values were subsequently expressed as a linear score (LS-CFU) by means of logarithmic transformation (LS=LOGN). […]

These results are taken from patent US20220016174A1, “FOETAL MESENCHYMAL STEM CELL COMPOSITION OF ALLOGENIC ORGIN, TREATMENT METHOD AND USE THEREOF IN MASTITIS IN MILK-PRODUCING ANIMALS, INCLUDING CATTLE” (UNIVERSIDAD DE CHILE, priority 2018, published 2022).

With `CC[C@@H]1CCN[C@H](C(=O)N[C@@H]([C@H]2O[C@H](SC)[C@H](O)[C@@H](O)[C@H]2O)[C@H](C)Cl)C1` [ATB, pirlimycin], in test [1], the “average daily milk production” value came to 16.7±0.8 I; the “decrease in milk production between days 5 and 7” value is reported as 2.1. Further, the “Milk yield reduction days 5-7 (Its.)” value in test [1] (days 5-7) is on record as 2.1 Its. Besides, in test [1] (n=5 each group, mean ± SD), the “Milk yield (Its.)” value was found to be 16.7 ± 0.8 Its, the “Rectal temperature (° C.)” value turned out to be 38.1 ± 0.3 °C, the “Respiratory rate (bpm)” value was 28.6 ± 2.5 bpm and the “Ruminal frequency (in 2 min)” value worked out at 2.6 ± 0.3. For the same molecule, in test [1] (n=5 each group, mean ± SD), the “Termography BL (° C.)” value was determined as 34.3 ± 0.6 °C, the “Termography BR (° C.)” value came out at 34.2 ± 0.5 °C, the “Termography FL (° C.)” value was 33.8 ± 0.7 °C and the “Termography FR(° C.)” value came out at 33.7 ± 0.7 °C. The “LS-CFU (linear score of CFU in milk)” value in the test on S. aureus (day 3 post-challenge (before treatment on day 4)) is on record as −0.7. Besides, the “LS-CFU (linear score of CFU in milk)” value in the test with S. aureus (day 8 post-challenge) is given as −0.7. In addition, the “LS-CFU (linear score of CFU in milk)” value in the test with S. aureus (day 9 post-challenge) is recorded as −0.7.
